Like-named read-outs stand apart in the source and are kept apart here.
Columns and labels:
[1] = tested on: female Syrian golden hamsters; assay: post-coital-post-implantation antifertility activity in hamsters, subcutaneous; assay type: in vivo, Syrian golden hamster; conditions: for ED50: Mesocricetus auratus, sc
Experimental: (§1) Representative experiments for assessing antifertility activity were carried out with female Syrian golden hamsters weighing 100 to 130 g. The animals were mated and the presence of sperm in the vagina was taken as evidence of mating. […] Pregnancy was later confirmed at the time of autopsy by presence of fetuses or implantation sites in the uterus. Even if an animal aborts the fetus, implantation scars still remain as evidence that the animal has been pregnant.
(§2) The animals were autopsied on day 14 of pregnancy and the uteri were examined for evidence of pregnancy (implantation sites, fetal resorptions or live fetuses), hemorrage, and evidence of abnormalities of the uterus, placenta or fetuses.

hamsters = assay: antifertility activity in hamsters by oral route; assay type: in vivo, hamster; conditions: Mesocricetus auratus; for inhibition in vivo at 10 mg/kg: oral dosage of 10 mg/kg, read-out: reduction of live fetuses; for ED50: po, absence of live fetuses in 50% of the animals
Experimental: as §1, §2
The experiments for assessing this property were carried out on hamsters following the same procedure as above, with the obvious exception that the compounds were administered orally instead of subcutaneously.

[2] = tested on: female Sprague-Dawley rats; assay: anti-reproductive activity in rats, subcutaneous; assay type: in vivo, Sprague-Dawley rat; conditions: Rattus norvegicus, sc; for responders at 20 mg/kg: 384 h, 20 mg/kg s.c. for five days from day 6 of pregnancy, sesame oil, autopsy day 16, read-out: reduction of live fetuses (share of treated rats)
Experimental: as §1, §2
The same criteria and experimental conditions as above were also applied when the anti-reproductive activity of the compounds of the invention was investigated in other animal species such as, for instance, rats, dogs, monkeys and baboons. In representative experiments, female Sprague-Dawley rats weighing from 200 to 300 g. were treated subcutaneously with a dosage of 20 mg/kg of the compound to be tested, dissolved in sesame oil, for five consecutive days starting from day 6 of pregnancy.

[3] = hamsters, 100% activity (absence of live fetuses) in 50% of the animals, read-out: ED50

| Structure (SMILES) | ED50 [1] | antifertility activity relative to the compounds of the invention ([1]; hamsters, 10 mg/kg s.c. daily for 5 days (days 4-8 of pregnancy), comparison) | ED50 [1, 3] | inhibition in vivo at 10 mg/kg (hamsters) | ED50 (hamsters) | responders at 20 mg/kg [2] | ED50 ([2]; absence of live fetuses in 50% of the animals) |
| --- | --- | --- | --- | --- | --- | --- | --- |
| c1ccc(-c2n[nH]c(-c3ccccc3)n2)cc1 [3,5-diphenyl-1H-1,2,4-triazole, reference compound] | 6 mg/kg | much less active | – | – | – | – | – |
| COc1cccc(-c2n[nH]c(-c3ccccc3C)n2)c1 [Example 1, 3-(m-Methoxyphenyl)-5-(o-tolyl)-1H-1,2,4-triazole] | – | – | 0.08 mg/kg | ~60% | 5 mg/kg | ≥ 60% | 1 mg/kg |
| COc1ccccc1-c1n[nH]c(-c2ccccc2C)n1 [Example 4, 3-(o-Methoxyphenyl)-5-(o-tolyl)-1H-1,2,4-triazole] | – | – | 0.5 mg/kg | ~60% | – | ≥ 60% | – |
| CCOc1cccc(-c2n[nH]c(-c3ccccc3C)n2)c1 [Example 9, 3-(m-Ethoxyphenyl)-5-(o-tolyl)-1H-1,2,4-triazole] | – | – | 0.07 mg/kg | – | – | – | – |
| C=CCOc1cccc(-c2n[nH]c(-c3ccccc3C)n2)c1 [Example 10, 3-(m-Allyloxyphenyl)-5-(o-tolyl)-1H-1,2,4-triazole] | – | – | 0.25 mg/kg | – | – | – | – |
| C=CCOc1cccc(-c2n[nH]c(-c3ccccc3CC)n2)c1 [Example 13, 3-(m-Allyloxyphenyl)-5-(o-ethylphenyl)-1H-1,2,4-triazole] | – | – | 0.1 mg/kg | – | – | – | – |
| CCc1ccccc1-c1nc(-c2cccc(F)c2)n[nH]1 [Example 18, 5-(o-Ethylphenyl)-3-(m-fluorophenyl)-1H-1,2,4-triazole] | – | – | 0.4 mg/kg | ~60% | – | ≥ 60% | – |
| CCc1ccccc1-c1nc(-c2ccc3c(c2)OCO3)n[nH]1 [Example 22, 5-(o-Ethylphenyl)-3-(3,4-methylenedioxyphenyl)-1H-1,2,4-triazole] | – | – | 0.03 mg/kg | ~60% | 3 mg/kg | ≥ 60% | – |
| Cc1ccc(-c2nc(-c3ccccc3)n[nH]2)c(C)c1 [Example 25, 5-(2,4-Dimethylphenyl)-3-phenyl-1H-1,2,4-triazole] | – | – | 0.2 mg/kg | ~60% | – | ≥ 60% | – |
| COc1cccc(-c2n[nH]c(-c3ccc(C)cc3C)n2)c1 [Example 26, 5-(2,4-Dimethylphenyl)-3-(m-methoxyphenyl)-1H-1,2,4-triazole] | – | – | 0.04 mg/kg | ~60% | – | ≥ 60% | – |
| Cc1cc(Cl)ccc1-c1nc(-c2ccccc2)n[nH]1 [Example 29, 5-(4-Chloro-2-methylphenyl)-3-phenyl-1H-1,2,4-triazole] | – | – | 0.14 mg/kg | ~60% | – | ≥ 60% | – |
| COc1cccc(-c2n[nH]c(-c3ccc(Cl)cc3C)n2)c1 [Example 30, 5-(4-Chloro-2-methylphenyl)-3-(m-methoxyphenyl)-1H-1,2,4-triazole] | – | – | 0.04 mg/kg | ~60% | 5 mg/kg | ≥ 60% | – |
| COc1cccc(-c2n[nH]c(-c3cc(Cl)ccc3C)n2)c1 [Example 32, 5-(5-Chloro-2-methylphenyl)-3-(m-methoxyphenyl)-1H-1,2,4-triazole] | – | – | 0.35 mg/kg | ~60% | – | ≥ 60% | – |
| COc1cccc(-c2n[nH]c(-c3ccc(OC)cc3C)n2)c1 [Example 34, 5-(4-Methoxy-2-methylphenyl)-3-(m-methoxyphenyl)-1H-1,2,4-triazole] | – | – | 0.2 mg/kg | – | – | – | – |
| CCOc1cccc(-c2n[nH]c(-c3ccccc3CC)n2)c1 [Example 35, 3-(m-Ethoxyphenyl)-5-(o-ethylphenyl)-1H-1,2,4-triazole] | – | – | 0.04 mg/kg | – | 3 mg/kg | – | – |
| CCc1ccccc1-c1nc(-c2ccc(OC)cc2)n[nH]1 [Example 36, 5-(o-Ethylphenyl)-3-(p-methoxyphenyl)-1H-1,2,4-triazole] | – | – | 0.15 mg/kg | – | 5 mg/kg | – | – |
| CCc1ccccc1-c1nc(-c2ccc(OC)c(OC)c2)n[nH]1 [Example 37, 5-(o-Ethylphenyl)-3-(3,4-dimethoxyphenyl)-1H-1,2,4-triazole] | – | – | 0.05 mg/kg | – | – | – | – |
